# From patent US20110230485A1, “6-PHENYL-PYRIMIDIN-4-YL-(PHENYLAMINE OR PHENOXY) DERIVATIVES USEFUL AS MODULATORS OF NICOTINIC ACETYLCHOLINE RECEPTORS” (NEUROSEARCH A/S, priority 2008, published 2011)
# Legend:
# [1] = target: T1, wild-type nAChR α7 receptors (Homo sapiens, UniProt P36544); test: Positive modulation of nAChR α7 receptors expressed in Xenopus laevis oocytes, two-electrode voltage clamp; type: cell-based; conditions: oocytes clamped at −60 mV; for Emax: read-out: Imax; for EC50: positive modulation of current induced by 100 μM acetylcholine, test compound 0.01-31.6 μM applied 30 s before and during acetylcholine
# T1 construct: expressed in transfected cells; host or cells: Xenopus laevis oocytes
# T1 sequence (P36544 23-502): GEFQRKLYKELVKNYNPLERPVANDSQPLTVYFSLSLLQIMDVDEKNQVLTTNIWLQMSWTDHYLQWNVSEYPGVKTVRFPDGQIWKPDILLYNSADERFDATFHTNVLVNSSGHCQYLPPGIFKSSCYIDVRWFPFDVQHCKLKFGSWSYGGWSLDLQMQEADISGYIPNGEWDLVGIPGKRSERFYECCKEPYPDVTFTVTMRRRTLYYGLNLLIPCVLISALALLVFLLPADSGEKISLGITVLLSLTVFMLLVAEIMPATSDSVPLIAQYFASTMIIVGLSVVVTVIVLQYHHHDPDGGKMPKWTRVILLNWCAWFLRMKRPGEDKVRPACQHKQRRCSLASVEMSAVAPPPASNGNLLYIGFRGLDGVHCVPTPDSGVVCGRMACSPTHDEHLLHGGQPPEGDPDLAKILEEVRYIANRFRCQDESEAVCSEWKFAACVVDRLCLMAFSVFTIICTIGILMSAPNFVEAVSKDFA
# Protocol: In this example the positive modulation of wild-type nAChR α7 receptors by the compounds of the invention was determined using nAChR α7 receptors heterologously expressed in Xenopus laevis oocytes.
# The electrical current through the nAChR α7 channel was measured using conventional two-electrode voltage clamp and nAChR α7 currents were activated by applying pulses of agonist-containing solution onto the nAChR α7 expressing oocyte.
# In brief, the oocytes were placed in a recording chambers and continuously super-fused with an Oocyte Ringer (OR) solution containing 90 mM NaCl, 2.5 mM KCl, 2.5 mM CaCl2, 1 mM MgCl2 and 5 mM HEPES (pH adjusted to 7.4). The oocytes were clamped at −60 mV and currents were induced by applying 20 s pulses of 100 μM acetylcholine dissolved in OR. The intervals between the acetylcholine applications were 5 minutes, during which the oocytes were washed with OR. The first three applications were control applications to insure a constant response level of 100 μM acetylcholine. For the subsequent test applications, increasing concentrations (0.01-31.6 μM) of the test compound were applied 30 s before and during the acetylcholine (100 μM) application, which caused a robust increase in the acetylcholine-induced current amplitude.
# The positive modulation in the presence of Compound was calculated as (test-control)/control×100% and the concentration response curve for this positive modulation was fitted to the sigmoidal logistic equation:
# I=Imax/(1+(EC50/[compound])^n),
# where Imax represents the maximal modulation of the control response, EC50 is the concentration causing a half maximal response, and n is the slope coefficient.
# [2] = maximal modulation of the control response to 100 μM acetylcholine, (test-control)/control×100%
Compound,melting point [°C],"Emax [1, 2] [%]",EC50 [1] [µM],"Imax [1, 2] [%]"
"COc1ccc(Nc2ncnc(-c3ccc(C(F)(F)F)cc3F)c2N)cn1 [Compound 1.6, 6-(2-Fluoro-4-trifluoromethyl-phenyl)-N*4*-(6-methoxy-rwridin-3-yl)-pyrimidine-4,5-diamine]",,,,129
"Nc1c(Nc2ccc(OCC3CC3)cc2)ncnc1-c1ccc(C(F)(F)F)cc1F [Compound 1.14, N*4*-(4-Cyclopropylmethoxy-phenyl)-6-(2-fluoro-4-trifluoromethyl-phenyl)-pyrimidine-4,5-diamine]",,3,,
"COc1ccc(Nc2nc(C)nc(-c3ccc(C(F)(F)F)cc3F)c2N)cc1 [Compound 1.16, 6-(2-Fluoro-4-trifluoromethyl-phenyl)-N*4*-(4-methoxy-phenyl)-2-methyl-pyrimidine-4,5-diamine]",,495,4.9,
"Cc1ccc(Nc2nc(C)nc(-c3ccc(C(F)(F)F)cc3F)c2N)cc1 [Compound 1.27, 6-(2-Fluoro-4-trifluoromethyl-phenyl)-2-methyl-N*4*-p-tolyl-pyrimidine-4,5-diamine]",,503,3.4,
"Cc1nc(Nc2ccc3c(c2)OCCO3)c(N)c(-c2ccc(C(F)(F)F)cc2F)n1 [Compound 1.29, N*4*-(2,3-Dihydro-benzo[1,4 dioxin-6-yl)-6-(2-fluoro-4-trifluoromethyl-phenyl)-2-methyl-pyrimidine-4,5-diamine]",,297,9.4,
"COc1cccc(Nc2nc(C)nc(-c3ccc(C(F)(F)F)cc3F)c2N)c1 [Compound 1.31, 6-(2-Fluoro-4-trifluoromethyl-phenyl)-N*4*-(3-methoxy-phenyl)-2-methyl-pyrimidine-4,5-diamine]",,193,5.7,
"CSc1cccc(Nc2nc(C)nc(-c3ccc(C(F)(F)F)cc3F)c2N)c1 [Compound 1.32, 6-(2-Fluoro-4-trifluoromethyl-phenyl)-2-methyl-N*4*-(3-methylsulfanyl-phenyl)-pyrimidine-4,5-diamine]",,245,9.8,
"COc1ccc(Nc2nc(C)nc(-c3ccc(C(F)(F)F)cc3F)c2N)c(OC)c1 [Compound 1.33, N*4*-(2,4-Dimethoxy-phenyl)-6-(2-fluoro-4-trifluoromethyl-phenyl)-2-methyl-pyrimidine-4,5-diamine]",,11,1.1,
"Cc1nc(Nc2ccc3ccccc3c2)c(N)c(-c2ccc(C(F)(F)F)cc2F)n1 [Compound 1.34, 6-(2-Fluoro-4-trifluoromethyl-phenyl)-2-methyl-N*4*-naphthalen-2-v1-pyrimidine-4,5-diamine]",,148,4.3,
"COc1ccc(Oc2ncnc(-c3ccc(C(F)(F)F)cc3F)c2N)cc1 [Compound 2.2, 4-(2-Fluoro-4-trifluoromethyl-phenyl)-6-(4-methoxy-phenoxy)-pyrimidin-5-ylamine]",,119,6.6,
Nc1c(Oc2ccc(O)cc2)ncnc1-c1ccc(C(F)(F)F)cc1F [Compound 2.3],,104,15,
Cc1nc(Oc2ccc3c(c2)OCO3)c(N)c(-c2ccc(C(F)(F)F)cc2F)n1 [Compound 2.9],,35,0.74,
"COc1ccc(Oc2nc(C)nc(-c3ccc(C(F)(F)F)cc3F)c2N)cc1 [Compound 2.13, 4-(2-Fluoro-4-trifluoromethyl-phenyl)-6-(4-methoxy-phenoxy)-2-methyl-pyrimidin-5-ylamine]",,42,6,

# Further lines, results first:
melting point [°C],"Emax [1, 2] [%]",EC50 [1] [µM],"Imax [1, 2] [%]",Compound
155.6 to 155.8,2,,,"COc1ccc(Nc2ncnc(-c3ccc(C(F)(F)F)cc3F)c2[N+](=O)[O-])cc1 [Compound 1.1, [6-(2-Fluoro-4-trifluoromethyl-phenyl)-5-nitro-pyrimidin-4-yl]-(4-methoxy-phenyl)-amine]"
169 to 171.5,391,23,,"O=[N+]([O-])c1c(Nc2ccc(O)cc2)ncnc1-c1ccc(C(F)(F)F)cc1F [Compound 1.2, 4-[6-(2-Fluoro-4-trifluoromethyl-phenyl)-5-nitro-pyrimidin-4-ylamino]-phenol]"
212.1 to 213.2,,2.3,,"COc1ccc(Nc2ncnc(-c3ccc(C(F)(F)F)cc3F)c2N)cc1 [Compound 1.3, 6-(2-Fluoro-4-trifluoromethyl-phenyl)-N*4*-(4-methoxy-Phenyl)-pyrimidine-4,5-diamine]"
194.2 to 195.7,,,,"Nc1c(Nc2ccc(O)cc2)ncnc1-c1ccc(C(F)(F)F)cc1F [Compound 1.4, 4-[5-Amino-6-(2-fluoro-4-trifluoromethyl-phenyl)-pyrimidin-4-ylamino]-phenol]"
,137,6.6,,"COc1ccc(Nc2ncnc(-c3ccc(C(F)(F)F)cc3F)c2[N+](=O)[O-])cn1 [Compound 1.5, [6-(2-Fluoro-4-trifluoromethyl-phenyl)-5-nitro-pyrimidin-4-yl]-(6-methoxy-pyridin-3-yl)-amine]"
,237,6.8,,"Nc1c(Nc2ccc(S(N)(=O)=O)cc2)ncnc1-c1ccc(C(F)(F)F)cc1F [Compound 1.8, 4-[5-Amino-6-(2-fluoro-4-trifluoromethyl-phenyl)-pyrimidin-4-ylamino]-benzenesulfonamide]"
,527,6.9,,"O=[N+]([O-])c1c(Nc2ccc3[nH]ccc3c2)ncnc1-c1ccc(C(F)(F)F)cc1F [Compound 1.9, [6-(2-Fluoro-4-trifluoromethyl-phenyl)-5-nitro-pyrimidin-4-yl]-(1H-indol-5-yl)-amine]"
,631,0.24,,"Nc1c(Nc2ccc3[nH]ccc3c2)ncnc1-c1ccc(C(F)(F)F)cc1F [Compound 1.10, 6-(2-Fluoro-4-trifluoromethyl-phenyl)-N*4*-(1H-indol-5-yl)-pyrimidine-4,5-diamine]"
,22,,,"Nc1c(Nc2ccc(O)nc2)ncnc1-c1ccc(C(F)(F)F)cc1F [Compound 1.11, 5-[5-Amino-6-(2-fluoro-4-trifluoromethyl-phenyl)-pyrimidin-4-ylamino]-pyridin-2-ol]"
,184,9.9,,"Nc1c(Nc2ccc3[nH]ncc3c2)ncnc1-c1ccc(C(F)(F)F)cc1F [Compound 1.12, 6-(2-Fluoro-4-trifluoromethyl-phenyl)-N*4*-(1H-indazol-5-yl)-pyrimidine-4,5-diamine]"
,848,54,,"Nc1c(Nc2ccc3c(c2)OCO3)ncnc1-c1ccc(C(F)(F)F)cc1F [Compound 1.13, N*4*-Benzo[1,3]dioxol-5-yl-6-(2-fluoro-4-trifluoromethyl-phenyl)-pyrimidine-4,5-diamine]"
,19,,,"COc1ccc(Oc2ncnc(-c3ccc(C(F)(F)F)cc3F)c2[N+](=O)[O-])cc1 [Compound 2.1, 4-(2-Fluoro-4-trifluoromethyl-phenyl)-6-(4-methoxy-phenoxy)-5-nitro-pyrimidine]"
